Experimental data from ChEMBL document CHEMBL1138777, “Frontal affinity chromatography with MS detection of EphB2 tyrosine kinase receptor. 1. Comparison with conventional ELISA” (J Med Chem, 2004).

Assays:
[1] = Binding constant for EphB2 tyrosine kinase
[2] = Inhibition of EphB2 receptor tyrosine kinase in ELISA assay

SMILES | Kd [1] [µM] | IC50 [2] [µM]
COc1cc2ncnc(Nc3cccc(O)c3)c2cc1OC | 2.4 | 1.2
COc1cc2ncnc(Nc3cccc(Br)c3)c2cc1OC | 8.1 | 10.2
CNc1cc2c(Nc3cccc(Br)c3)ncnc2cn1 | 21.9 | 34
COc1cc2ncnc(Nc3ccc(Oc4ccccc4)cc3)c2cc1OC | 58.4 | 86

Continued by falling Kd [1], values first:

Kd [1] [µM] | IC50 [2] [µM] | SMILES
36.5 | 52 | CC(C)(C)n1nc(-c2ccc(Cl)cc2)c2c(N)ncnc21
19.5 | 27.5 | CN(C)c1ccc(/C=C2\C(=O)Nc3ccccc32)cc1
